Assay results taken from patent US11339169B2, “P2X3 and/or P2X2/3 compounds and methods” (Asana BioSciences, LLC, priority 2016, dated 2022).

Each compound was assayed against T1, hP2X3 (Homo sapiens, UniProt P56373) (assay: FLIPR intracellular calcium assay, hP2X3). Details: human P2X3-HEK cells, agonist at EC75.
T1 construct: host or cells: HEK (hP2X3-HEK)
T1 sequence (P56373 1-397): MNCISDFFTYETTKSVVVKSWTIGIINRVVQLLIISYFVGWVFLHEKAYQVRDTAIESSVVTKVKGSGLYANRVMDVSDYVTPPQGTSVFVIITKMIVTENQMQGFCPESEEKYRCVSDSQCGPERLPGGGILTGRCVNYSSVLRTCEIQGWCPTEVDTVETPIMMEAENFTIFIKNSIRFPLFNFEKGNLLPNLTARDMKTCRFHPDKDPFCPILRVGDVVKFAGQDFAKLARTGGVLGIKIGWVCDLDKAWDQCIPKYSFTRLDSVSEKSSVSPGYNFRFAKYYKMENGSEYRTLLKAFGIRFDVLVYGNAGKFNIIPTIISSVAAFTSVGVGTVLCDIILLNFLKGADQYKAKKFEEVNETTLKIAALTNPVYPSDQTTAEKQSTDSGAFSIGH
Type: cell-based
From the text: (§1) The FLIPR® assay utilizes cells which express human or rat P2X3 or P2X2/3 receptors. Recombinant cells expressing hP2X3 (Cat #6188) and hP2X2/3 (Cat #6179) were procured from Chantest Corp. Rat P2X2 (NCBI Accession No: U14414) was amplified by PCR from PC12 cDNA (a rat adrenal medulla cell line). The PCR product obtained containing the protein coding sequence of rat P2X2 was cloned into EcoRV-digested and dephosphorylated vector plRES-puro3 within the multiple cloning site (MCS). See, FIG. 1A.
(§2) (i) Intracellular Calcium Assay Protocol for Screening Compounds
(§3) Cryo-vial containing 6×10^6 cells (human P2X3-HEK/human P2X2/3-TRex293/rat P2X2/3-TRex293/rat P2X3 TRex-CHO) was thawed in a 37° C. water bath. Cells were suspended in 20 mL of respective cell plating media (See annexure for composition) in a 50 mL centrifuge tube. The cell viability was checked with the help of Trypan Blue dye. Upon washing, cells were plated in a black 384-well clear bottomed, sterile poly-D-lysine coated plate such that, each well contained 10,000 cells (15,000/well for hP2X3) in 30 μL cell plating media. The plate was incubated in a 5% CO2 incubator at 37° C. for 24 h.
(§4) The next day, prior to the assay, the cell plating media was removed from each well by decanting and gentle tapping. Thirty μL of FLIPR Calcium 4 dye solution was added to each well. The plate was incubated at 37° C. for 45 min (60 min for hP2X3). The plate was next equilibrated at room temperature for 15 minutes before placing it in a 384 well FLIPR for the assay.
(§5) Compounds were dissolved in DMSO and serially diluted following 11 point half log (3.16 fold) dilution with a starting concentration of 2 mM. Dilutions were mixed with assay buffer just before performing the assay.
(§6) Compounds were added to the respective wells of the assay-ready cell plate with the help of the FLIPR and fluorescence readings were captured for 5 min to observe any possible agonistic property of the compounds. The plate was then incubated at room temperature for 15 min. The cells were stimulated with respective agonist EC75 concentration and the fluorescence readings were captured for another 5 min by FLIPR. The difference in fluorescence readings in presence of the compounds were compared with that of the control wells (wells having no compound) to calculate the inhibitory potency of the compounds. The IC50 values of the compounds were determined using the Graph pad Prism software.
(§7) (ii) Cell Plating Media for hP2X3-HEK and hP2X2/3-TRex293 Cells • DMEM/F12 (1:1) HAM media (Invitrogen; Cat #11039) • 1×NEAA (Invitrogen; Cat #11140) • 25 mM HEPES (Invitrogen; Cat #15630) • 1 mM sodium pyruvate (Invitrogen; Cat #11360) • 10% tetracycline negative FBS (PAA; Cat #A15-209) • 1 μg/mL doxycycline (Clontech; Cat #63131) [for hP2X2/3-TRex293 cells only]
(§8) (v) Assay Buffer Composition • HBSS (Invitrogen Cat #14025) • 20 mM HEPES (Invitrogen Cat #15630) • 0.01% F127 (Sigma Cat #P2443) • 1.8 mM CaCl2 (Sigma Cat #C5080) • pH adjusted to 7.4
(§9) (vi) Dye Solution Composition • 1× FLIPR Calcium 4 dye in assay buffer (Molecular devices Cat #R8141) • 1.8 mM Probenecid (Sigma Cat #P8761) • pH adjusted to 7.4
For CCN1CCN(c2nc(N[C@H](C)c3cnc4ccccc4c3)c3c(cnn3C(C)C)n2)CC1=O [Example 23], the IC50 was 1 to 100 nM. COCC(C)n1ncc2nc(N3CCN(C(C)=O)CC3)nc(N[C@H](C)c3cnc4ccccc4c3)c21 (some centres unmarked) [Example 24] gave an IC50 of 1 to 100 nM. In the case of CC(=O)N1CCN(c2nc(N[C@H](C)c3cnc4ccccc4c3)c3c(cnn3C3CCCC3)n2)CC1 [Example 25], the IC50 is reported as 1 to 100 nM. For CCC(CC)n1ncc2nc(N3CCN(C(C)=O)CC3)nc(NCC3(c4ccc(Cl)cc4)CCC3)c21 [Example 29], the IC50 was 1 to 100 nM. Work on CCOc1ccc(C(C)Nc2nc(N3CCN(C(C)=O)CC3)nc3cnn(C(CC)CC)c23)cc1 (centres unmarked) [Example 30] yielded an IC50 of 1 to 100 nM. Work on CCC(C)n1ncc2nc(N3CCN(C(C)=O)CC3)nc(NCC3(c4ccc(Cl)cc4)CCC3)c21 (centres unmarked) [Example 31] yielded an IC50 of 1 to 100 nM. For CC(=O)N1CCN(c2nc(N[C@H](C)c3cnc4ccccc4c3)c3c(cnn3CC3CCC3)n2)CC1 [Example 32], the IC50 was 1 to 100 nM. For CCOc1ccc([C@H](C)Nc2nc(N3CCN(C(C)=O)CC3)nc3cnn(C(CC)CC)c23)cc1 [Example 33], the IC50 was 1 to 100 nM. CC(=O)N1CCN(c2nc(N[C@H](C)c3cnc4ccccc4c3)c3c(cnn3C(C3CC3)C3CC3)n2)CC1 [Example 34] gave an IC50 of 1 to 100 nM. In the case of CCC(CC)n1ncc2nc(N3CCN(C(C)=O)CC3)nc(N[C@H](CC)c3cnc4ccccc4c3)c21 [Example 35], the IC50 is reported as 1 to 100 nM. CCC(CC)n1ncc2nc(N3CCN(C(C)=O)CC3)nc(NC(C)c3ccc4occc4c3)c21 (centres unmarked) [Example 39] showed an IC50 of 100 to 1000 nM. Work on CCC(CC)n1ncc2nc(N3CCN(C(C)=O)CC3)nc(N[C@H](C)c3ccc4ccccc4c3)c21 [Example 40] yielded an IC50 of 1 to 100 nM. CCC(CC)n1ncc2nc(N3CCN(C(C)=O)CC3)nc(NC(C)c3cnc4ccc(F)cc4c3)c21 (centres unmarked) [Example 42] was tested, and the IC50 was 1 to 100 nM. CCC(C)n1ncc2nc(N3CCN(C(C)=O)CC3)nc(N[C@H](CC)c3cnc4ccccc4c3)c21 (some centres unmarked) [Example 43] was tested, and the IC50 was 1 to 100 nM. CCC(CC)n1ncc2nc(N3CCN(C(C)=O)CC3)nc(N[C@@H](c3cnc4ccccc4c3)C3CC3)c21 [Example 44] gave an IC50 of 1 to 100 nM. Work on CCC(C)n1ncc2nc(N3CCN(C(C)=O)CC3)nc(NC(C)c3ccc4oc(C)cc4c3)c21 (centres unmarked) [Example 45] yielded an IC50 of 1 to 100 nM. CCC(CC)n1ncc2nc(N3CCN(C(C)=O)CC3)nc(NC(C)c3ccc4oc(C)cc4c3)c21 (centres unmarked) [Example 46] gave an IC50 of 1 to 100 nM. For CCC(CC)n1ncc2nc(N3CCN(C(C)=O)CC3)nc(NC(C)c3ccc(OC(C)C)cc3)c21 (centres unmarked) [Example 47], the IC50 was 1 to 100 nM. Compound CC(=O)N1CCN(c2nc(N[C@H](C)c3cnc4ccccc4c3)c3c(cnn3C3CCC3)n2)CC1 [Example 48] has an IC50 of 1 to 100 nM.

The compounds below were run against T2, hP2X2/3 (Homo sapiens, UniProt P56373+Q9UBL9) (assay: FLIPR intracellular calcium assay, hP2X2/3). Details: human P2X2/3-TRex293 cells, agonist at EC75.
T2 construct: host or cells: TRex293 (hP2X2/3-TRex293), doxycycline-induced
T2 sequence (P56373 1-397): T1 sequence (P56373 1-397)
T2 sequence (Q9UBL9 1-471): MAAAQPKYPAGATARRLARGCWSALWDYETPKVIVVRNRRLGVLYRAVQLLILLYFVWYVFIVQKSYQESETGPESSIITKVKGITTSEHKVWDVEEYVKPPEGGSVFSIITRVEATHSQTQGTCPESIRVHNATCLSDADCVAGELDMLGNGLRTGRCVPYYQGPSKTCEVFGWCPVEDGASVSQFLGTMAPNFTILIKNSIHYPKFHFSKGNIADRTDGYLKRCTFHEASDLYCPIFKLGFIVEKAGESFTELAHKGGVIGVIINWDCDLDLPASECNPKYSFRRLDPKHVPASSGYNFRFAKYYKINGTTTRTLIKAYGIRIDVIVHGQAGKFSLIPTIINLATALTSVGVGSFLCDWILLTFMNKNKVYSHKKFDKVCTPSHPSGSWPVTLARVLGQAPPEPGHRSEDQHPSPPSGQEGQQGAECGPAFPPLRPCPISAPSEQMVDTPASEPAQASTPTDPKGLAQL
Type: cell-based
From the text: as §1, §2, §3, §4, §5, §6, §7, §8, §9
CCN1CCN(c2nc(N[C@H](C)c3cnc4ccccc4c3)c3c(cnn3C(C)C)n2)CC1=O [Example 23] gave an IC50 of 1000 to 10000 nM. Compound COCC(C)n1ncc2nc(N3CCN(C(C)=O)CC3)nc(N[C@H](C)c3cnc4ccccc4c3)c21 (some centres unmarked) [Example 24] has an IC50 of 1000 to 10000 nM. CC(=O)N1CCN(c2nc(N[C@H](C)c3cnc4ccccc4c3)c3c(cnn3C3CCCC3)n2)CC1 [Example 25] was tested, and the IC50 was 1000 to 10000 nM. Work on CCC(CC)n1ncc2nc(N3CCN(C(C)=O)CC3)nc(NCC3(c4ccc(Cl)cc4)CCC3)c21 [Example 29] yielded an IC50 of 1000 to 10000 nM. Compound CCOc1ccc(C(C)Nc2nc(N3CCN(C(C)=O)CC3)nc3cnn(C(CC)CC)c23)cc1 (centres unmarked) [Example 30] has an IC50 of 1000 to 10000 nM. In the case of CCC(C)n1ncc2nc(N3CCN(C(C)=O)CC3)nc(NCC3(c4ccc(Cl)cc4)CCC3)c21 (centres unmarked) [Example 31], the IC50 is reported as 1000 to 10000 nM. Work on CC(=O)N1CCN(c2nc(N[C@H](C)c3cnc4ccccc4c3)c3c(cnn3CC3CCC3)n2)CC1 [Example 32] yielded an IC50 of 1000 to 10000 nM. In the case of CCOc1ccc([C@H](C)Nc2nc(N3CCN(C(C)=O)CC3)nc3cnn(C(CC)CC)c23)cc1 [Example 33], the IC50 is reported as 1000 to 10000 nM. CC(=O)N1CCN(c2nc(N[C@H](C)c3cnc4ccccc4c3)c3c(cnn3C(C3CC3)C3CC3)n2)CC1 [Example 34] showed an IC50 of 1 to 100 nM. Work on CCC(CC)n1ncc2nc(N3CCN(C(C)=O)CC3)nc(N[C@H](CC)c3cnc4ccccc4c3)c21 [Example 35] yielded an IC50 of 100 to 1000 nM. Work on CCC(CC)n1ncc2nc(N3CCN(C(C)=O)CC3)nc(NC(C)c3ccc4occc4c3)c21 (centres unmarked) [Example 39] yielded an IC50 of 1000 to 10000 nM. CCC(CC)n1ncc2nc(N3CCN(C(C)=O)CC3)nc(N[C@H](C)c3ccc4ccccc4c3)c21 [Example 40] gave an IC50 of 100 to 1000 nM. CCC(CC)n1ncc2nc(N3CCN(C(C)=O)CC3)nc(NC(C)c3cnc4ccc(F)cc4c3)c21 (centres unmarked) [Example 42] was tested, and the IC50 was 100 to 1000 nM. For CCC(C)n1ncc2nc(N3CCN(C(C)=O)CC3)nc(N[C@H](CC)c3cnc4ccccc4c3)c21 (some centres unmarked) [Example 43], the IC50 was 1000 to 10000 nM. CCC(CC)n1ncc2nc(N3CCN(C(C)=O)CC3)nc(N[C@@H](c3cnc4ccccc4c3)C3CC3)c21 [Example 44] was tested, and the IC50 was 1 to 100 nM. Work on CCC(C)n1ncc2nc(N3CCN(C(C)=O)CC3)nc(NC(C)c3ccc4oc(C)cc4c3)c21 (centres unmarked) [Example 45] yielded an IC50 of 1000 to 10000 nM. Work on CCC(CC)n1ncc2nc(N3CCN(C(C)=O)CC3)nc(NC(C)c3ccc4oc(C)cc4c3)c21 (centres unmarked) [Example 46] yielded an IC50 of 100 to 1000 nM. CCC(CC)n1ncc2nc(N3CCN(C(C)=O)CC3)nc(NC(C)c3ccc(OC(C)C)cc3)c21 (centres unmarked) [Example 47] gave an IC50 of 1000 to 10000 nM. CC(=O)N1CCN(c2nc(N[C@H](C)c3cnc4ccccc4c3)c3c(cnn3C3CCC3)n2)CC1 [Example 48] showed an IC50 of 1000 to 10000 nM.
